These results are taken from patent US20050090520A1 (priority 2003, published 2005).

The target of data set [1] is T1, S1P4 (Homo sapiens, UniProt O95977).
T1 sequence (O95977 1-384): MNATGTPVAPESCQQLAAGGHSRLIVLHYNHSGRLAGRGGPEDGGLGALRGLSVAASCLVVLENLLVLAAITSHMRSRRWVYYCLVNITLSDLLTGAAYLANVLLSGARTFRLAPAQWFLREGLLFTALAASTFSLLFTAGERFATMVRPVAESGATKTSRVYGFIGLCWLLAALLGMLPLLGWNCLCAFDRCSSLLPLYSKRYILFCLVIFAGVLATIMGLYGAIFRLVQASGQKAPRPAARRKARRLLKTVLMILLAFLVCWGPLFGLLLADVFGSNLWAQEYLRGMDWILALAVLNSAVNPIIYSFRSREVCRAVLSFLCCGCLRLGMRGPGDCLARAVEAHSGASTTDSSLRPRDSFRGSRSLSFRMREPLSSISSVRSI
Particulars: read-out: Potency (EC50) S1P4, cited from earlier work.

For data set [2], the target named is T1, S1P4. Particulars: Mandala et al., 2002; CHO cell membranes; read-out: Binding (IC50) S1P4; cited from earlier work.
The conditions of data set [3]: dog models, dosages below 200 mg/kg; IDDB; cited from earlier work.
For data set [4] the following is noted: dogs; cited from earlier work.
The target of the next data set is T2, CYP4F3 (Homo sapiens, UniProt Q08477).
T2 sequence (Q08477 1-520): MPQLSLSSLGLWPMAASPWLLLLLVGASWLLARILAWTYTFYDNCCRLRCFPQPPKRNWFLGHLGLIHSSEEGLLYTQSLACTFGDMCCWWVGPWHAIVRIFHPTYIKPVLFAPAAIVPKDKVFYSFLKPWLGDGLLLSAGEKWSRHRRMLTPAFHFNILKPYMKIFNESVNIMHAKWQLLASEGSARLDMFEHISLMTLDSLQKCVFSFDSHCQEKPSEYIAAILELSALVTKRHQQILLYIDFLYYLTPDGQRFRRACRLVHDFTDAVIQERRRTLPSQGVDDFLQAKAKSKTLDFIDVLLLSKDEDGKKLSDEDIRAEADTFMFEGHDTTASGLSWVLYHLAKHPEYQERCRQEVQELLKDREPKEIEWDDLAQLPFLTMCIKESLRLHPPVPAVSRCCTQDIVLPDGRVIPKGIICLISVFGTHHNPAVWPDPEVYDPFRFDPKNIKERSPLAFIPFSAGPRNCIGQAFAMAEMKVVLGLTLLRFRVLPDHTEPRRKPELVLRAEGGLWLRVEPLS
Particulars: cited from earlier work.

In data set [5] the test system is adult neural stem cells (NSCs). The experiment in a line: Intracellular ATP proliferation assay. It counts as cell-based, mouse. The settings on record: for Increase in intracellular ATP levels: 10 nM, 3 days. The protocol:
(§1) The anterior lateral wall of the lateral ventricle of 5-6 week old mice was enzymatically dissociated at 37° C. for 20 min in 0.8 mg/ml hyaluronidase and 0.5 mg/ml trypsin in DMEM containing 4.5 mg/ml glucose and 80 units/ml DNase. The cells were gently triturated and mixed with three volumes of Neurosphere medium (DMEM/F12, B27 supplement, 125 mM HEPES Ph 7.4) containing 20 ng/ml EGF (unless otherwise stated), 100 units/ml penicillin, and 100 μg/ml streptomycin. After passing through a 70 μm strainer, the cells were pelleted at 160×g for 5 min. The supernatant was subsequently removed and the cells resuspended in Neurosphere medium supplemented as above, plated out in culture dishes and incubated at 37° C. Neurosphere cultures were ready to be split approximately 7 days after plating.
To split the neurosphere cultures, neurospheres were collected by centrifugation at 160×g for 5 min. The conditioned supernatant (conditioned medium) was removed and saved. The neurospheres were resuspended in 0.5 ml Trypsin/EDTA in HBSS (1×), incubated at 37° C. for 2 min, and triturated gently to aid dissociation. Following a further 3 min incubation at 37° C. and trituration, 3 volumes of ice cold NSPH-media-EGF were added to stop further trypsin activity. The cells were pelleted at 220×g for 4 min, and resuspended in a 1:1 mixture of fresh Neurosphere medium and conditioned medium. EGF was supplemented to 20 ng/ml and the culture plated out and incubated at 37° C.
(§2) The adherent cells were seeded at a density of 30,000 cells/well on poly-D-lysine in DMEM/F12 supplemented with 1% fetal calf serum (FCS).
The following experiment was performed in sets of four parallel experiments (i.e., performed in quadruplicate) so that the cells could be used for different assays. […] Cells were lysed with 0.1% Triton-X100 in Tris-EDTA buffer. Intracellular ATP was measured using an ATP-SL kit according to the manufacturer's instructions (BioThema, Sweden). […] For each experiment, wells were visually examined for signs of neurogenesis and counted to confirm the results of the assay. Results were repeatable and statistically significant.

The target of a further data set is S1P2 (Homo sapiens, UniProt O95136). Particulars: Mandala et al., 2002; CHO cell membranes; read-out: Binding (IC50) S1P2; cited from earlier work.
For data set [6] the following is noted: monkeys; cited from earlier work.
In data set [7] the test system is adult neural stem cells (NSCs). The experiment in a line: Lactate dehydrogenase (LDH) cell death assay. In kind it is cell-based, mouse. Particulars: 3 days. The protocol: as §2
The death of cells that occurred during the 3 days was measured as leakage of lactate dehydrogenase (LDH) into the medium. […] The proportion of LDH in the medium to total LDH (medium+cells) gives the percentage of cell death. Treated and untreated cells can thus be compared to rule out apoptosis as the cause for the different results observed in the ATP proliferation assay. The amount of LDH was measured according to the instructions of the manufacturer, Promega, USA (see, also, Chen, et al., 2004).

The conditions of data set [8]: rat models; IDDB; cited from earlier work.
The target in the next data set is S1P3 (Homo sapiens, UniProt Q99500). The settings on record: Mandala et al., 2002; CHO cell membranes; read-out: Binding (IC50) S1P3; cited from earlier work.
For data set [9] the following is noted: cited from earlier work.
For data set [10] the following is noted: primates, 3 mg/kg; IDDB; cited from earlier work.
For data set [11] the following is noted: rats, cited from earlier work.
Another data set addresses S1P5 (Homo sapiens, UniProt Q9H228). The settings on record: Mandala et al., 2002; CHO cell membranes; read-out: Binding (IC50) S1P5; cited from earlier work.
The conditions of data set [12]: renal transplant patients, single oral dose 0.25-3 mg, whole blood, 96 hours; cited from earlier work.
The test system of data set [13] is adult neural stem cells (NSCs). The experiment in a line: BrdU incorporation proliferation assay. In kind it is cell-based, mouse. Particulars: 10 nM. The protocol: as §1
To split the neurosphere cultures, neurospheres were collected by centrifugation at 160×g for 5 min. The conditioned supernatant (conditioned medium) was removed and saved. The neurospheres were resuspended in 0.5 ml Trypsin/EDTA in HBSS (1×), incubated at 37° C. for 2 min, and triturated gently to aid dissociation. […]
DNA synthesis is commonly used to measure cell proliferation. […] After incorporation if the pyrimidine analogue into DNA, BrdU was detected by immunoassay. […]
In general terms: Uptake of a labelled nucleoside into DNA is a usual measure of proliferation.

Molecules are shown by their SMILES. Where two headings read alike, the source gives them in different places. Bounds are passed on as bounds.

S1P2, sequence (O95136 whole entry, species assumed): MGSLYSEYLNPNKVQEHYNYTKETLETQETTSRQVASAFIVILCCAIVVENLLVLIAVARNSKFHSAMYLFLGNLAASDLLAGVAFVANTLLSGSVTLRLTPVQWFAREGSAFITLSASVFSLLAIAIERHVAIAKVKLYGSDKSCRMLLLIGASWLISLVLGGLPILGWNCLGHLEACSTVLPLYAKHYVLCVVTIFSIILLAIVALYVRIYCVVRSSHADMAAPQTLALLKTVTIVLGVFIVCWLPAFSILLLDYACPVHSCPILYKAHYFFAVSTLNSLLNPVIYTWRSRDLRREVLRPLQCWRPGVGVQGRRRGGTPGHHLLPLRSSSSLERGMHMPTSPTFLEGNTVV
S1P3, sequence (Q99500 whole entry, species assumed): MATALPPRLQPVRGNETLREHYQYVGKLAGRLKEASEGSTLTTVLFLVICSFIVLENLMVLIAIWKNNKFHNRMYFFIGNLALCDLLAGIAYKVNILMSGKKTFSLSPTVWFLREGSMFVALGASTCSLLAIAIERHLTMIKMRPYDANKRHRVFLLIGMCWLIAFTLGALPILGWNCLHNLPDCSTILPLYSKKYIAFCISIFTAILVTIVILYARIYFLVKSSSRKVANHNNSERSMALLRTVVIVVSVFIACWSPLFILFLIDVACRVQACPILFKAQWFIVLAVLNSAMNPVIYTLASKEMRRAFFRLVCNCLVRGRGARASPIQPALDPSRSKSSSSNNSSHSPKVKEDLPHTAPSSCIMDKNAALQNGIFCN
S1P5, sequence (Q9H228 whole entry, species assumed): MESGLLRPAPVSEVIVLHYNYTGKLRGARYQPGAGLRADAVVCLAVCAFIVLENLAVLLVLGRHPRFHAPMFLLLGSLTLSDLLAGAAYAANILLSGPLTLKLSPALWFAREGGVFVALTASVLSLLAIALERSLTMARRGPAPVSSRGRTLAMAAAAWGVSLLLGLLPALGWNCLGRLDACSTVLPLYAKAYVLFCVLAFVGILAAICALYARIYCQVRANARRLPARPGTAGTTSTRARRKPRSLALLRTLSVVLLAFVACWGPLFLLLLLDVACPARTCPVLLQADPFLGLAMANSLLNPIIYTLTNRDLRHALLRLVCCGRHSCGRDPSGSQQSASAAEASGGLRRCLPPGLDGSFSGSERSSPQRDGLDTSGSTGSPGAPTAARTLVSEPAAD

As a reminder, the IC50 is the concentration that gives 50% inhibition. For `CCCCCCCCc1ccc(CCC(N)(CO)COP(=O)(O)O)cc1` (racemic) [FTY720P], the EC50 was 7.2 nM at S1P4 [1] (Brinkmann et al., 2002) and 43 nM on S1P4 [1] (Novartis data). Further, the IC50 on S1P4 [2] was 5.9 nM.

The term LD50 denotes the dose at which mortality reaches 50%. Turning to `CCCCCCCCc1ccc(CCC(N)(CO)CO)cc1` [FTY720, 2-amino-2-[2-(4-octylphenyl)ethyl]-1,3-propanediol], in data set [3], the Deaths result was “no deaths were observed”. Moreover, the Oral bioavailability in [4] is on record as 60%; in data set [6] it was 40%; in data set [11], 80%. Besides, the Metabolic route result on CYP4F3 is listed as “metabolized primarily by CYP4F3 to the corresponding carboxylic acid”. The “Concentration of maximum proliferation effect” value in data set [5] (FIG. 2) was determined as 0.04 nM. In data set [5] (Mus musculus, Neural stem cell, dose-response curve, FIG. 2, read-out: EC50 of in vitro proliferation of NSCs (ATP assay)), the EC50 turned out to be 0.02 nM. In addition, the “Increase in intracellular ATP levels” value in data set [5] (adherent cells) is listed as 42%; in data set [5] (suspension cells), 25%. The IC50 was over 10000 nM on S1P2, over 10000 nM at S1P3, 2620 nM at S1P5 and over 5000 nM at S1P4 [2]. Further, the “Change in LDH levels between control and treated cells” value in [7] is “No significant change”. In addition, the LD50 in data set [8] was 300 to 600 mg/kg. The Adverse events entry in data set [9] (PI renal transplant patients, 0.25-3.5 mg single dose) was “no serious adverse events”. The “Only observed side effect” value in data set [9] (orally administered for immunosuppression) was “mild and transient bradycardia”. Besides, the Toxicity result in data set [10] is given as “no observed toxicity”. The T1/2 in data set [11] (single oral dose 0.1 mg/kg) was 18.1 h; in [11] (single oral dose 1 mg/kg) it was 21.6 h. Besides, the Absorption entry in data set [12] is recorded as “slowly absorbed”. In addition, the “Cmax and AUC versus dose” value in data set [12] is given as “proportional to the dose”. For the same molecule, the “Increase in BrdU incorporation” value in [13] (adherent cells) is 271%; in data set [13] (suspension cells), 52%.
